# Measured values from US5545625A, “Preventing conversion of citrulline to argininosuccinate to limit pathological nitric oxide overproduction” (The Medical College of Wisconsin Research Foundation, Inc., priority 1994, dated 1996).
# Several values for one entry are separate records, joined by “and”; a condition that tells them apart may be missing. Equal entries are not always repeated.
# Tests used:
# [1] = molecular target: T1, immunostimulant induced argininosuccinate synthetase (Rattus norvegicus, UniProt P09034); experiment: Argininosuccinate synthetase assay in crude homogenate of immunostimulant treated rat aortic smooth muscle cells (Example VI); format: biochemical; details: test compound 1 mM; for counts per minute in the argininosuccinate synthetase assay: duplicate runs, control 534.00 and 443.00, background 217, 237 and 252 not subtracted
# T1 sequence (P09034 1-412): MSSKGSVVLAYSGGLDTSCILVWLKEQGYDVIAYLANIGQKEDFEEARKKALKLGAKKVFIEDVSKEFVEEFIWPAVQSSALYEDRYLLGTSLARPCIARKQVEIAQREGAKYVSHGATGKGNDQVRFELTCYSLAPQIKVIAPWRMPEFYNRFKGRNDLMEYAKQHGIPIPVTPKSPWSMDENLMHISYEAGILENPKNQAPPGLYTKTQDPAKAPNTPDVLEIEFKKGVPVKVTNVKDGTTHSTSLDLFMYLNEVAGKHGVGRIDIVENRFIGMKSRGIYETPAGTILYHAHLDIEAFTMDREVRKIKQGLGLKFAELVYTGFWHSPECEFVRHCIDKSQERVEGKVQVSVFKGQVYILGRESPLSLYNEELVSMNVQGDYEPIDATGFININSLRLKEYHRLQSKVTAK
# Description: Argininosuccinate synthetase activity was assayed based on the conversion of [^14 C]aspartate to [^14 C]argininosuccinate, as described in O'Brien, W. E., Biochemistry 18, 5353-5356, 1979, with the exception that aspartate was present at a concentration of 30 μm (0.021 μCi/nmol). Reaction mixtures also contained L-citrulline (5 mM), Tris (10 mM, pH 7.5), ATP 0.1mM), phosphoenolpyruvate (1.5 mM), pyruvate kinase (4.5 units), myokinase (4 units), and pyrophosphatase (0.2 unit) in a total volume of 0.3 ml. Reactions were allowed to proceed for 90 minutes at 37° C before termination and quantification of the [^14 C]argininosuccinate formed, using ion exchange chromatography on Dowex 1-X8 (200-400 mesh, Bio-Rad).
# Immunostimulant treated rat aortic smooth muscle cells prepared as in Example I were homogenized in 10 volumes (10 ml/gm rat aortic smooth muscle cells) of 100 mM tris buffer containing 1 mM phenylmethylsulfonyl fluoride ([…]) and 1 mM dithiothreitol (to maintain enzyme in reduced form).
# For the control, the crude homogenate was assayed for argininosuccinate synthetase by the procedure as described in Example I except that L-citrulline was present at a concentration of 150 μM instead of 5 mM. In duplicate runs, counts per minute were 534.00 (8.65% error) and 443.00 (9.50% error) counts per minute.
# The background count to be subtracted from the above count results was obtained by omitting citrulline from the argininosuccinate synthetase assay and in three runs was determined to be 217, 237 and 252 counts per minute.
# [2] = test system: rat aortic smooth muscle cells; experiment: Nitrite production (indicator of cellular NO synthesis) by LPS/interferon-gamma induced rat aortic smooth muscle cells (Examples IV, V); format: cell-based; details: L-citrulline varied at fixed L-arginine (0 or low), added with immunostimulant; 24 hours; FIG. 5
# Description: Rat aortic smooth muscle cells were grown as described in Example I and were continuously treated with 30 μg/ml of bacterial lipopolysaccharide in combination with 50 ng/ml of interferongamma. Concentrations of mithramycin as indicated in FIG. 4 were added either simultaneously with immunostimulant (filled in circles in FIG. 4) or 4 hours later (open circles in FIG. 4).
# Nitrite was used as an indicator of cellular NO synthesis and assay was carried out as described in Gross, S. S., et al, J. Biol. Chem. 267, 25722-25729 (1992). In the assay, cells were treated with serum- and arginine-free RPMI 1640 medium containing the desired test agents for 24 hours. The accumulation of nitrite in the cell culture medium was quantified colorimetrically after adding 100 μl of Griess reagent (1% sulfanilamide and 0.1% naphthalene diamine in 5% o-phosphoric acid) to an equal volume of sample.
# Rat aortic smooth muscle cells were grown as described in Example I and were treated with 30 μg/ml of bacterial lipopolysaccharide in combination with 50 ng/ml of interferon-gamma. Concentrations of L-citrulline and L-arginine as indicated in FIG. 5 were added simultaneously with immunostimulant. Nitrite was used as an indicator of cellular NO synthesis and assay therefor was carried out as described in Example IV.
# [3] = test system: human treated with interleukin-2; experiment: Hypotension during interleukin-2 treatment for renal cell cancer (Examples VIII, XIV); format: in vivo; details: interleukin-2 1×10^6, 5 days; L-thiocitrulline 10 mg/kg/day from start of infusion
# Description: A human is treated for renal cell cancer with interleukin-2 (1×10^6 units) for 5 days. By the fifth day, the patient's blood pressure falls to 80/55 mm Hg and the patient encounters nausea and extreme discomfort. Three weeks later, the patient returns for a second course of interleukin-2 treatment but is pretreated (before commencing interleukin-2 infusion) with mithramycin (25 μg/kg) and is treated at 24 hour intervals thereafter with 25 μg/kg of mithramycin. The mithramycin is administered intravenously in 50 ml saline over a 3 to 6 hour interval.
# A human is treated for renal cell cancer with interleukin-2 (1×10^6) for 5 days. Simultaneously with commencing interleukin-2 infusion, L-thiocitrulline (10 mg/kg/day) is administered.
# [4] = test system: patient with Gram negative septicemia; experiment: Blood pressure in septicemia patient given dopamine plus test agent (Examples IX, XV); format: in vivo, human; details: dopamine 10 μg/kg/min plus L-thiocitrulline 20 mg/kg bolus then 10 mg/kg/hr
# Description: A patient with Gram negative septicemia and blood pressure of 80/55 mm Hg is administered dopamine at 10 μg/kg/min to acutely increase blood pressure and concurrently is administered mithramycin (25 μg/kg) intravenously in 50 ml saline over 3-6 hours.
# A patient with Gram negative septicemia and blood pressure of 80/55 mm Hg is administered dopamine at 10 μg/kg/min to acutely increase blood pressure and concurrently is intravenously administered an initial bolus dose of L-thiocitrulline of 20 mg/kg and thereafter L-thiocitrulline as a sustained infusion at a dose of 10 mg/kg/hr.
# Sprague-Dawley rats = experiment: Air pouch inflammatory model with croton oil (Examples XII, XVIII); format: in vivo, rat; details: L-thiocitrulline 20 mg/kg intraperitoneally, repeated at 6-24 hour intervals; end of 5 days; versus rats without drug
# [5] = test system: patient with Gram negative septicemia; experiment: Blood pressure in septicemia patient given N^G -methyl-L-arginine plus test agent (Examples X, XVI); format: in vivo, human; details: N^G -methyl-L-arginine 20 mg/kg bolus then 10 mg/kg/hr, plus N^ω -methyl-L-citrulline 40 mg/kg intravenously over 3-6 hours
# Description: A patient with Gram negative septicemia and blood pressure of 80/55 mm Hg is administered N^G -methyl-L-arginine in a bolus dose of 20 mg/kg intravenously in saline and thereafter is given a sustained infusion of N^G -methyl-L-arginine at a dosage of 10 mg/kg/hr. Mithramycin (25 μg/kg) is given intravenously in 50 ml saline over 3-6 hours starting at the time of the bolus dose of N^G -methyl-L-arginine. […] The patient is released after 2 days.
# A patient with a Gram negative septicemia and blood pressure of 80/55 mm Hg is administered N^G -methyl-L-arginine in a bolus dose of 20 mg/kg intravenously in saline and thereafter is given a sustained infusion of N^G -methyl-L-arginine at a dose of 10 mg/kg/hr. N^ω -Methyl-L-citrulline (40 mg/kg) is given intravenously in 50 ml saline over 3-6 hours starting at the time of the bolus dose of N^G -methyl-L-arginine.
SMILES,inhibition of immunostimulant induced argininosuccinate synthetase ([1]; L-citrulline 150 μM),counts per minute in the argininosuccinate synthetase assay ([1]; L-citrulline 150 μM),inhibition of immunostimulant induced argininosuccinate synthetase ([1]; stated in present tense),also measured
N=C(N)NOCC[C@H](N)C(=O)O [L-canavanine],are inhibitors of immunostimulant induced argininosuccinate synthetase,355.00 (10.61% error) counts per minute and 393.00 (10.09% error) counts per minute,,
NC(=O)NCCC[C@H](N)C(=O)O [L-citrulline],,,,nitrite concentration in cell culture medium [2]: maximal nitrite is obtained
CCC[C@H](N)C(=O)O [L-norvaline],,,inhibition of immunostimulant induced argininosuccinate synthetase is shown,
NC(=S)NCCC[C@H](N)C(=O)O [L-thiocitrulline],are inhibitors of immunostimulant induced argininosuccinate synthetase,272.00 (12.13% error) counts per minute and 227.00 (13.27% error) counts per minute,,development of hypotension [3]: Hypotension does not develop; blood pressure [4]: becomes normal within minutes and this state is sustained; inflammation (Sprague-Dawley rats): less inflammation; nitrite in the fluid exudate of the lesion (Sprague-Dawley rats): significantly less nitrite
CNC(=N)NCCC[C@H](N)C(=O)O [N^ω -methyl-L-arginine],,591.00 (8.23% error) counts per minute and 520.00 (8.77% error) counts per minute,,
CNC(=O)NCCC[C@H](N)C(=O)O [N^ω -methyl-L-citrulline],,,more potent than obtained with L-canavanine but less potent than obtained with L-thiocitrulline,blood pressure [5]: becomes mildly hypotensive or normal within minutes
